One compound from patent publication US20230338568A1, “NOVEL ISOMERIC COMPOUNDS COMPRISING A RING-OPENED THIOSUCCINIMIDE GROUP, AN OLIGOPEPTIDE FRAGMENT AND A CHIRAL MOIETY” (priority 2020, published 2023) can be followed below.

A word on the IC50: it is the concentration that gives 50% inhibition.

The subject of experiment [1] is HER2 negative cell MDA-MB-468. Nature of the experiment: Cytotoxicity of α-ADCs in HER2 negative cell MDA-MB-468 (CellTiter-Glo). The experiment is classed as cell-based. The conditions noted are these: HER2 negative MDA-MB-468, 72 h. As to the method: (§1) Cell viability is tested using CellTiter-Glo® Luminescent Kit (Promega, Cat.# G7573) read by a Biotek Cytation3 Imaging reader.
(§2) Study design was shown as in Table 21 and Table 22. […] Cell vitality formula: Viability = (RLU (X) - RLU (Puro))/(RLU (Control) - RLU (Puro)) ^∗ 100%. A logistic model (4-parameter) will be used for data processing, IC50 calculation and curve fitting by Prism 6 software.
(ATP-based viability assays read luminescence as a measure of living cells.)

For experiment [2], the system named is HER2 positive cell HCC1954. Nature of the experiment: Cytotoxicity of α-ADCs in HER2 positive cell HCC1954 (CellTiter-Glo). The experiment is classed as cell-based, Human. Conditions: HER2 positive HCC1954, 72 h. As to the method:
as §1, §2

Regarding `COc1cc2cc(c1Cl)N(C)C(=O)C[C@H](OC(=O)[C@H](C)N(C)C(=O)CCS)[C@]1(C)O[C@H]1[C@H](C)[C@@H]1C[C@@](O)(NC(=O)O1)[C@H](OC)/C=C/C=C(\C)C2` [DM1], the IC50 in experiment [1] is 1.5 nM; in experiment [2], 4.2 nM.
